This is an account of results in US20240018133A1, “MODULATORS OF THE INTEGRATED STRESS PATHWAY” (Calico Life Sciences LLC, priority 2019, published 2024).

The experiment deals with ATF4 luciferase reporter (human full-length ATF4 5'-UTR fused to firefly luciferase) in HEK293T cells. In words: ATF4-Luc assay (in vitro model of VWMD): HEK293T cells carrying ATF4 luciferase reporter, tunicamycin-treated. The class given is cell-based. The settings on record: Homo sapiens, HEK-293T, 1 μg/mL tunicamycin, 7 hours, One Glo luminescence. Summed up: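 Compound at 200 nM and tunicamycin at 1 μg/mL were given together for 7 h to HEK293T cells stably transduced with an ATF4 5′-UTR-driven firefly luciferase reporter. Read-out by luminescence, reported as EC50.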

What is called EC50 is the midpoint of the concentration-response curve.

On to `COc1ncc(OCC(=O)NC23CC(NC(=O)[C@H]4CC(=O)c5cc(Cl)ccc5O4)(C2)C3)cn1` [Compound 333, (2R)-6-chloro-N-(3-{2-[(2-methoxypyrimidin-5-yl)oxy]acetamido}bicyclo[1.1.1]pentan-1-yl)-4-oxo-3,4-dihydro-2H-1-benzopyran-2-carboxamide], for which the EC50 was in the range of 250 to 500 nM.
